Columns and labels:
Type in all cases: in vivo
[1] = test system: galium (catchweed bedstraw, Galium aparine); assay: Test A postemergence; conditions: Galium, post-emergence, 240 h, 0 to 100 scale, read-out: Plant response rating, Galium
Excerpt: (§1) Seeds of plant species selected from barnyardgrass (Echinochloa crus-galli), kochia (Kochia scoparia), ragweed (common ragweed, Ambrosia elatior), Italian ryegrass (Lolium multiflorum), large (Lg) crabgrass (Digitaria sanguinalis), giant foxtail (Setaria faberii), morningglory (Ipomoea spp.), pigweed (Amaranthus retroflexus), velvetleaf (Abutilon theophrasti), wheat (Triticum aestivum), and corn (Zea mays) were planted into a blend of loam soil and sand and treated preemergence with a directed soil spray using test chemicals formulated in a non-phytotoxic solvent mixture which included a surfactant.
(§2) At the same time, plants selected from these crop and weed species and also blackgrass (Alopecurus myosuroides), and galium (catchweed bedstraw, Galium aparine) were planted in pots containing the same blend of loam soil and sand and treated with postemergence applications of test chemicals formulated in the same manner. Plants ranged in height from 2 to 10 cm and were in the one- to two-leaf stage for the postemergence treatment. Treated plants and untreated controls were maintained in a greenhouse for approximately 10 days, after which time all treated plants were compared to untreated controls and visually evaluated for injury. Plant response ratings, summarized in Table A, are based on a 0 to 100 scale where 0 is no effect and 100 is complete control. A dash (-) response means no test result.

[2] = test system: Italian ryegrass (Lolium multiflorum); assay: Test A postemergence; conditions: Lolium multiflorum, post-emergence, 240 h, 0 to 100 scale, read-out: Plant response rating, Ryegrass, Italian
Excerpt: as §1, §2

[3] = test system: wheat (Triticum aestivum); assay: Test A postemergence; conditions: Triticum aestivum, post-emergence, 240 h, 0 to 100 scale, read-out: Plant response rating, Wheat
Excerpt: as §1, §2

[4] = test system: ragweed (common ragweed, Ambrosia elatior); assay: Test A postemergence; conditions: Ambrosia artemisiifolia, post-emergence, 240 h, 0 to 100 scale, read-out: Plant response rating, Ragweed
Excerpt: as §1, §2

[5] = test system: barnyardgrass (Echinochloa crus-galli); assay: Test A postemergence; conditions: Echinochloa crus-galli, post-emergence, 240 h, 0 to 100 scale, read-out: Plant response rating, Barnyardgrass
Excerpt: as §1, §2

corn (Zea mays) = assay: Test A postemergence; conditions: Zea mays, post-emergence, 240 h, 0 to 100 scale
Excerpt: as §1, §2

[6] = test system: giant foxtail (Setaria faberii); assay: Test A postemergence; conditions: Setaria faberi, post-emergence, 240 h, 0 to 100 scale, read-out: Plant response rating, Foxtail, Giant
Excerpt: as §1, §2

[7] = test system: pigweed (Amaranthus retroflexus); assay: Test A postemergence; conditions: Amaranthus retroflexus, post-emergence, 240 h, 0 to 100 scale, read-out: Plant response rating, Pigweed
Excerpt: as §1, §2

[8] = test system: blackgrass (Alopecurus myosuroides); assay: Test A postemergence; conditions: Alopecurus myosuroides, post-emergence, 240 h, 0 to 100 scale, read-out: Plant response rating, Blackgrass
Excerpt: as §1, §2

kochia (Kochia scoparia) [9] = assay: Test A postemergence; conditions: Bassia scoparia, post-emergence, 240 h, 0 to 100 scale, read-out: Plant response rating, Kochia
Excerpt: as §1, §2

[10] = test system: Italian ryegrass (Lolium multiflorum); assay: Test A preemergence; conditions: Lolium multiflorum, pre-emergence, 240 h
Excerpt: as §1, §2

[11] = test system: ragweed (common ragweed, Ambrosia elatior); assay: Test A preemergence; conditions: Ambrosia artemisiifolia, pre-emergence, 240 h
Excerpt: as §1, §2

[12] = test system: barnyardgrass (Echinochloa crus-galli); assay: Test A preemergence; conditions: Echinochloa crus-galli, pre-emergence, 240 h
Excerpt: as §1, §2

[13] = test system: giant foxtail (Setaria faberii); assay: Test A preemergence; conditions: Setaria faberi, pre-emergence, 240 h
Excerpt: as §1, §2

[14] = test system: pigweed (Amaranthus retroflexus); assay: Test A preemergence; conditions: Amaranthus retroflexus, pre-emergence, 240 h
Excerpt: as §1, §2

kochia (Kochia scoparia) [15] = assay: Test A preemergence; conditions: Bassia scoparia, pre-emergence, 240 h
Excerpt: as §1, §2

Structure (SMILES): N#Cc1cccc(Oc2ncc(Br)cn2)c1Oc1ccc(Br)cn1 [Compound 12]
- pest or weed control at 31 g/ha ([1]; 31 g ai/ha): 10%
- pest or weed control at 125 g/ha ([1]; 125 g ai/ha): 50%
- pest or weed control at 31 g/ha ([2]; 31 g ai/ha): 0%
- pest or weed control at 125 g/ha ([2]; 125 g ai/ha): 0%
- plant injury at 31 g/ha ([3]; 31 g ai/ha): 0%
- plant injury at 125 g/ha ([3]; 125 g ai/ha): 20%
- pest or weed control at 31 g/ha ([4]; 31 g ai/ha): 0%
- pest or weed control at 125 g/ha ([4]; 125 g ai/ha): 0%
- pest or weed control at 31 g/ha ([5]; 31 g ai/ha): 0%
- pest or weed control at 125 g/ha ([5]; 125 g ai/ha): 20%
- Corn plant response rating (crop injury, 0 = no effect, 100 = complete kill) at 31 g/ha (corn (Zea mays); 31 g ai/ha): 0%
- Corn plant response rating (crop injury, 0 = no effect, 100 = complete kill) at 125 g/ha (corn (Zea mays); 125 g ai/ha): 20%
- pest or weed control at 31 g/ha ([6]; 31 g ai/ha): 0%
- pest or weed control at 125 g/ha ([6]; 125 g ai/ha): 40%
- pest or weed control at 31 g/ha ([7]; 31 g ai/ha): 10%
- pest or weed control at 125 g/ha ([7]; 125 g ai/ha): 100%
- pest or weed control at 31 g/ha ([8]; 31 g ai/ha): 0%
- pest or weed control at 125 g/ha ([8]; 125 g ai/ha): 50%
- pest or weed control at 31 g/ha (kochia (Kochia scoparia) [9]; 31 g ai/ha): 0%
- pest or weed control at 125 g/ha (kochia (Kochia scoparia) [9]; 125 g ai/ha): 20%
- pest or weed control at 31 g/ha ([10]; 31 g ai/ha, 0 to 100 scale (0 no effect, 100 complete control), read-out: Ryegrass, Italian plant response rating): 0%
- pest or weed control at 125 g/ha ([10]; 125 g ai/ha, 0 to 100 scale, read-out: Plant response rating, Ryegrass, Italian): 0%
- pest or weed control at 31 g/ha ([11]; 31 g ai/ha, 0 to 100 scale (0 no effect, 100 complete control), read-out: Ragweed plant response rating): 0%
- pest or weed control at 125 g/ha ([11]; 125 g ai/ha, 0 to 100 scale, read-out: Plant response rating, Ragweed): 0%
- pest or weed control at 31 g/ha ([12]; 31 g ai/ha, 0 to 100 scale (0 no effect, 100 complete control), read-out: Barnyardgrass plant response rating): 0%
- pest or weed control at 125 g/ha ([12]; 125 g ai/ha, 0 to 100 scale, read-out: Plant response rating, Barnyardgrass): 30%
- pest or weed control at 31 g/ha ([13]; 31 g ai/ha, 0 to 100 scale (0 no effect, 100 complete control), read-out: Foxtail, Giant plant response rating): 0%
- pest or weed control at 125 g/ha ([13]; 125 g ai/ha, 0 to 100 scale, read-out: Plant response rating, Foxtail, Giant): 70%
- pest or weed control at 31 g/ha ([14]; 31 g ai/ha, 0 to 100 scale (0 no effect, 100 complete control), read-out: Pigweed plant response rating): 60%
- pest or weed control at 125 g/ha ([14]; 125 g ai/ha, 0 to 100 scale, read-out: Plant response rating, Pigweed): 100%
- pest or weed control at 31 g/ha (kochia (Kochia scoparia) [15]; 31 g ai/ha, 0 to 100 scale (0 no effect, 100 complete control), read-out: Kochia plant response rating): 0%
- pest or weed control at 125 g/ha (kochia (Kochia scoparia) [15]; 125 g ai/ha, 0 to 100 scale, read-out: Plant response rating, Kochia): 20%

Source: patent US20170190671A1, “BIS(ARYL)CATECHOL DERIVATIVES AS HERBICIDES” (E I DU PONT DE NEMOURS AND COMPANY, priority 2014, published 2017)
